Marks after values point to notes of the source that are not given here.
Tested on: transformed human airway epithelial cells (CFT1-LCFSN line)
Experiment: Inhibition of internalization of P. aeruginosa strain PAO1 into CFT1-LCFSN cells (bacterial ingestion assay)
Format: cell-based
Settings: for mean cfu P. aeruginosa internalized (standard deviation): strain PAO1, CFT1-LCFSN cells
Source text: Cell lines. CFT1-LCFSN cells, carrying a retrovirally introduced chromosomal copy of the wild-type human CFTR gene were kindly provided by J. Olsen, J. Yankaskis and L. Johnson from The University of North Carolina, Chapel Hill, N.C.. The cell line parental to CFT1-LCFSN is designated CFT1; it is a line of human papilloma virus 18 E6/E7 transformed bronchial epithelial cells derived from a CF patient homozygous for ΔF508 CFTR. The CFT1-LCFSN cells have normal chloride ion conductance. CFT1-ΔF508 cells are derived from CFT1 cells and carry a cDNA introduced by a retrovirus vector that encodes the ΔF508 mutant form of CFTR. Cells were grown in supplemented F-12 medium as described in 5% CO2 at 37° C.
Bacterial strains. P. aeruginosa strains used include PAO1, a well-characterized laboratory strain, and strains 149 and 324, non-mucoid, LPS-smooth clinical isolates of P. aeruginosa from CF patients early in the course of infection. Fresh cultures of P. aeruginosa grown overnight at 37° C. on a tryptic soy agar plate were suspended in supplemented medium to prepare the bacterial inoculum. Approximately 10^6 cfu of the bacterial inoculum were added per well of 10^5, epithelial cells.
Reagents for inhibition of ingestion assays. Membranes were prepared from C127 cells as described by O'Riordan et al.. Membranes were suspended in 150 mM NaCl, 50 mM Tris, pH 7.5 and 1 mM EDTA and added at the indicated concentration to suspensions of P. aeruginosa strains prior to adding this mixture to CFT1-LCFSN cells to measure bacterial uptake. Membranes from CEM/VbI cells expressing P-glycoprotein and membranes from control CEM cells lacking P-glycoprotein were obtained from James Croop of Harvard Medical School. Purified (˜85%) recombinant CFTR was obtained from Genzyme Corp., and prepared as described. The protein was solubilized in 100 mM NaCl, 10 mM Tris, pH 8.0, 2 mM di-thio-threitol and 0.1% sodium dodecyl sulfate. Monoclonal antibodies raised to synthetic peptides corresponding to the first (MAb CF3) and fourth (MAb CF4) predicted extracellular domains of CFTR, as well as a MAb specific to a peptide representing the carboxy-terminal 14 amino acids of mature CFTR (MAb CF2) were provided by Dr. George Banting, University of Bristol, Bristol, UK [12]. Synthetic peptides were obtained from Chiron Mimetopes, San Diego, Calif. Peptide […] (15 amino acids) (SEQ.ID.NO. 3) represents amino acids 103-117 of mature CFTR, peptide […] (31 amino acids) (SEQ.ID.NO. 4) represents amino acids 881-911 of mature CFTR. Peptides were made up as a stock solution in F-12 medium containing 1 μM/μl based on the purity reported by the manufacturer. Peptides were diluted in F-12 tissue culture medium prior to use in assays.
Bacterial ingestion assay. Cells were released from monolayers in tissue culture flasks by 5 min. of incubation with trypsin-versene mixture (BioWhitaker, Walkersville, Md.), washed, counted and seeded into 96-well tissue culture plates at 10^5 cells/well in supplemented F-12 medium and incubated at 37° C. in 5% CO2. Fresh cultures of P. aeruginosa grown overnight at 37° C. on a tryptic soy agar plate were suspended in supplemented F-12 medium to prepare the bacterial inoculum. Then 10^6 colony forming units (cfu) of the bacterial inoculum were added per well of 10^5 epithelial cells. Bacteria were allowed to invade the epithelial cells for 3 to 4 hours at 37° C., after which nonadherent bacteria were removed by washing. The remaining steps of the assay and the steps involved in the controls have previously been described. Three to 9 replicates were obtained per point, and analyzed using analysis of variance (ANOVA) and the Fisher PLSD statistic to determine pairwise differences. […]

Substance: CFTR: purified (~85%) recombinant CFTR obtained from Genzyme Corp.
- inhibition of bacterial ingestion (in words) (CFT1-LCFSN cells, nanogram quantities of CFTR): significant inhibition of bacterial ingestion
- mean cfu P. aeruginosa internalized (standard deviation) (9.7 μg protein/ml): 1.05 × 10^5 (2.5 × 10^4) cfu
- mean cfu P. aeruginosa internalized (standard deviation) (78 μg protein/ml): 8.55 × 10^4 (1.15 × 10^4) cfu
- mean cfu P. aeruginosa internalized (standard deviation) (625 μg protein/ml): 4.9 × 10^4 (1.25 × 10^4)^a cfu
- mean cfu P. aeruginosa internalized (standard deviation) (5000 μg protein/ml): 1.65 × 10^4 (1.05 × 10^4)^a cfu

From patent US6825178B1, “Methods and products for treating pseudomonas infection” (The Brigham and Women's Hospital, Inc., priority 1996, dated 2004)
